Laboratory results from article PMC4921915 (Scientific Reports, 2016).

Molecular target: T1, α1β3 GABAA receptor, 3α1:2β3 stoichiometry (α1 + β3, 30:1) (Homo sapiens, UniProt P14867+P28472)
T1 construct: gene GABRA1; full-length free subunits, cRNA ratio α1:β3 30:1, Xenopus laevis oocytes; heteropentamer; 'Human' printed for α1 and γ2, β3 implied by same sentence
T1 sequence (P14867 28-456): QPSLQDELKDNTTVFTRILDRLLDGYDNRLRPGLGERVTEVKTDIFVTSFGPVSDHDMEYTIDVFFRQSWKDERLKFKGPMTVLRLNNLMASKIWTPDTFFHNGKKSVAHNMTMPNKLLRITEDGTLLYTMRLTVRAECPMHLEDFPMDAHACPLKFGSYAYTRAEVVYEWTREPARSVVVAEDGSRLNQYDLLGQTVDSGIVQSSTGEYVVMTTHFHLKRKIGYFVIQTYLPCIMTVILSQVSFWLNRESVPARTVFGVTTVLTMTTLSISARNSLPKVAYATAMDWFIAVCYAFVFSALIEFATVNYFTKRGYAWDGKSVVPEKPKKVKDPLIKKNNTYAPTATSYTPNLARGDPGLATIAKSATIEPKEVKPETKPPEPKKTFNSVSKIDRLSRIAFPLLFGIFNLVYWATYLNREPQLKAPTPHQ
T1 sequence (P28472 26-473): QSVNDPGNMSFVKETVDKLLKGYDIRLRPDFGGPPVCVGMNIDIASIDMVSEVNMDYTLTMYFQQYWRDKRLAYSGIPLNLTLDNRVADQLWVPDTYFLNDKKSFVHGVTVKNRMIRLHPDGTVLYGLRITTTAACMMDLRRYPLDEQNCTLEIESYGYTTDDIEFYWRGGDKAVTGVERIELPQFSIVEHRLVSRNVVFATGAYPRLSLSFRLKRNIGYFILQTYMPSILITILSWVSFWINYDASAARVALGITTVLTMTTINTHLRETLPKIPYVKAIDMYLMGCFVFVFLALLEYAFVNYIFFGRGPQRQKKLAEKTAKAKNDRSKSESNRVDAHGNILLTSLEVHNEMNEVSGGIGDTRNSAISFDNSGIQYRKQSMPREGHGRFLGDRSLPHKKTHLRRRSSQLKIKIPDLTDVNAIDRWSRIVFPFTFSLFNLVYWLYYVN
Assay: two-electrode voltage clamp, Xenopus oocytes
Assay type: cell-based
Details: read-out: % inhibition at 1 μM

CCOC(=O)c1ncn2c1CN(C)C(=O)c1cc(F)ccc1-2 [flumazenil, Ethyl 8-fluoro-5-methyl-6-oxo-5,6-dihydro-4H-benzo[f]imidazo[1,5-a][1,4]diazepine-3-carboxylate]
inhibition at 1 µM: 95%
